# Results as given in ChEMBL document CHEMBL3867421, “The action mechanism of daptomycin” (Bioorg Med Chem, 2016).
# Columns and labels:
# [1] = tested on: Bacillus subtilis; assay: Antibacterial activity against Bacillus subtilis PY79 after 18 hrs by two-fold serial dilution method relative to daptomycin; assay type: functional
# [2] = tested on: Staphylococcus aureus; assay: Antibacterial activity against Staphylococcus aureus relative to daptomycin; assay type: functional
# [3] = tested on: Bacillus subtilis; assay: Antibacterial activity against Bacillus subtilis relative to daptomycin; assay type: functional
# [4] = tested on: Bacillus spizizenii; assay: Antibacterial activity against Bacillus subtilis ATCC 6633 incubated overnight by broth dilution method; assay type: functional
# [5] = tested on: Bacillus subtilis; assay: Antibacterial activity against Bacillus subtilis ATCC 1046 incubated overnight by broth dilution method; assay type: functional
# [6] = tested on: Enterococcus faecalis; assay: Antibacterial activity against Enterococcus faecalis 201 by broth microdilution assay relative to daptomycin; assay type: functional
# [7] = tested on: Enterococcus faecium; assay: Antibacterial activity against Enterococcus faecium 14 by broth microdilution assay relative to daptomycin; assay type: functional
# [8] = tested on: Staphylococcus aureus; assay: Antibacterial activity against Staphylococcus aureus 42 by broth microdilution assay relative to daptomycin; assay type: functional
# [9] = Membrane permeabilization activity in DOPC/DOPG large unilamellar liposomes assessed as leakage of calcein at 30 ug/ml preincubated with CaCl2 for 1 hr prior to testing; assay type: ADME
# [10] = Membrane permeabilization activity in DOPC/DOPG large unilamellar liposomes assessed as leakage of calcein at 16 ug/ml; assay type: ADME
# [11] = Protein binding in human plasma by UV/HPLC analysis; assay type: ADME, cell-free; details: read-out: PPB (converted)
# [12] = tested on: Staphylococcus aureus; assay: Antibacterial activity against Staphylococcus aureus JKD6004 harboring WalR K208R mutant by microbroth dilution assay; assay type: functional
# [13] = tested on: Staphylococcus aureus; assay: Antibacterial activity against vancomycin sensitive Staphylococcus aureus JKD6004 by microbroth dilution assay; assay type: functional
smiles,measurement,setting,value
CCCCCCCCCC(=O)N[C@@H](Cc1c[nH]c2ccccc12)C(=O)N[C@@H](CC(N)=O)C(=O)N[C@@H](CC(=O)O)C(=O)N[C@@H]1C(=O)NCC(=O)N[C@@H](CCCN)C(=O)N[C@@H](CC(=O)O)C(=O)N[C@H](C)C(=O)N[C@@H](CC(=O)O)C(=O)NCC(=O)N[C@H](CO)C(=O)N[C@@H](CCC(=O)O)C(=O)N[C@@H](Cc2c[nH]c3ccccc23)C(=O)O[C@@H]1C,fold change (FC),[1],33
CCCCCCCCCC(=O)N[C@@H](Cc1c[nH]c2ccccc12)C(=O)N[C@H](CC(N)=O)C(=O)N[C@@H](CC(=O)O)C(=O)N[C@H]1CNC(=O)[C@H](Cc2c[nH]c3ccccc23)NC(=O)[C@H](CCC(=O)O)NC(=O)[C@@H](CO)NC(=O)CNC(=O)[C@H](CC(=O)O)NC(=O)[C@@H](C)NC(=O)[C@H](CC(=O)O)NC(=O)[C@H](CCCN)NC(=O)CNC1=O,fold change (FC),[2],100
CCCCCCCCCC(=O)N[C@@H](Cc1c[nH]c2ccccc12)C(=O)N[C@H](CC(N)=O)C(=O)N[C@@H](CC(=O)O)C(=O)N[C@@H]1C(=O)NCC(=O)N[C@@H](CCCN)C(=O)N[C@@H](CC(=O)O)C(=O)N[C@H](CC(N)=O)C(=O)N[C@@H](CC(=O)O)C(=O)NCC(=O)N[C@H](CO)C(=O)N[C@@H]([C@H](C)CC(=O)O)C(=O)N[C@@H](CC(=O)c2ccccc2N)C(=O)O[C@@H]1C,fold change (FC),[3],16
CCCCCCCCCC(=O)N[C@@H](Cc1c[nH]c2ccccc12)C(=O)N[C@H](CC(N)=O)C(=O)N[C@@H](CC(=O)O)C(=O)N[C@@H]1C(=O)NCC(=O)N[C@@H](CCCN)C(=O)N[C@@H](CC(=O)O)C(=O)N[C@H](CC(N)=O)C(=O)N[C@@H](CC(=O)O)C(=O)NCC(=O)N[C@H](CO)C(=O)N[C@@H](CCC(=O)O)C(=O)N[C@@H](CC(=O)c2ccccc2N)C(=O)O[C@@H]1C,fold change (FC),[3],256
CCCCCCCCCC(=O)N[C@@H](Cc1c[nH]c2ccccc12)C(=O)N[C@H](CC(N)=O)C(=O)N[C@@H](CC(=O)O)C(=O)N[C@@H]1C(=O)NCC(=O)N[C@@H](CCCN)C(=O)N[C@@H](CC(=O)O)C(=O)N[C@H](C)C(=O)N[C@@H](CC(=O)O)C(=O)NCC(=O)N[C@H](CC(N)=O)C(=O)N[C@@H](CCC(=O)O)C(=O)N[C@@H](CC(=O)c2ccccc2N)C(=O)O[C@@H]1C,fold change (FC),[3],64
CCCCCCCCCC(=O)N[C@@H](Cc1c[nH]c2ccccc12)C(=O)N[C@@H](CC(N)=O)C(=O)N[C@@H](CC(=O)O)C(=O)N[C@@H]1C(=O)NCC(=O)N[C@@H](CCCN)C(=O)N[C@@H](CC(=O)O)C(=O)N[C@H](C)C(=O)N[C@@H](CC(=O)O)C(=O)NCC(=O)N[C@H](CO)C(=O)N[C@@H](CCC(N)=O)C(=O)N[C@@H](CC(=O)c2ccccc2N)C(=O)O[C@@H]1C,fold change (FC),[1],10
CCCCCCCCCC(=O)N[C@@H](Cc1c[nH]c2ccccc12)C(=O)N[C@H](CC(N)=O)C(=O)N[C@@H](CC(=O)O)C(=O)N[C@@H]1C(=O)NCC(=O)N[C@@H](CCCN)C(=O)N[C@@H](CC(=O)O)C(=O)N[C@H](CC(N)=O)C(=O)N[C@@H](CC(=O)O)C(=O)NCC(=O)N[C@H](CO)C(=O)N[C@@H]([C@H](C)CC(=O)O)C(=O)N[C@@H]([C@@H](C)CC)C(=O)O[C@@H]1C,fold change (FC),[3],32
CCCCCCCCCC(=O)N[C@@H](Cc1c[nH]c2ccccc12)C(=O)N[C@H](CC(N)=O)C(=O)N[C@@H](CC(=O)O)C(=O)N[C@H]1CNC(=O)[C@H](CC(=O)c2ccccc2N)NC(=O)[C@H](CCC(=O)O)NC(=O)[C@@H](CO)NC(=O)CNC(=O)[C@H](CC(=O)O)NC(=O)[C@@H](C)NC(=O)[C@H](CC(=O)O)NC(=O)[C@H](CCCN)NC(=O)CNC1=O,fold change (FC),[2],200
CCCCCCCCCC(=O)N[C@@H](Cc1c[nH]c2ccccc12)C(=O)N[C@@H](CC(N)=O)C(=O)N[C@@H](CC(N)=O)C(=O)N[C@@H]1C(=O)NCC(=O)N[C@@H](CCCN)C(=O)N[C@@H](CC(=O)O)C(=O)N[C@H](C)C(=O)N[C@@H](CC(=O)O)C(=O)NCC(=O)N[C@H](CO)C(=O)N[C@@H](CCC(=O)O)C(=O)N[C@@H](CC(=O)c2ccccc2N)C(=O)O[C@@H]1C,fold change (FC),[1],27
CCCCCCCCCC(=O)N[C@@H](Cc1c[nH]c2ccccc12)C(=O)N[C@H](CC(N)=O)C(=O)N[C@@H](CC(=O)O)C(=O)N[C@@H]1C(=O)NCC(=O)N[C@@H](CCCNC(=O)Cc2c(C)c3cc(S(=O)(=O)O)c(N)cc3oc2=O)C(=O)N[C@@H](CC(=O)O)C(=O)N[C@H](C)C(=O)N[C@@H](CC(=O)O)C(=O)NCC(=O)N[C@H](CO)C(=O)N[C@@H]([C@@H](C)CC(=O)O)C(=O)N[C@@H](CC(=O)c2ccccc2N)C(=O)O[C@@H]1C,MIC,[4],12 µg/mL
CCCCCCCCCC(=O)N[C@@H](Cc1c[nH]c2ccccc12)C(=O)N[C@H](CC(N)=O)C(=O)N[C@@H](CC(=O)O)C(=O)N[C@@H]1C(=O)NCC(=O)N[C@@H](CCCN)C(=O)N[C@@H](CC(=O)O)C(=O)N[C@H](C)C(=O)N[C@@H](CC(=O)O)C(=O)NCC(=O)N[C@H](CO)C(=O)N[C@@H]([C@H](C)CC(=O)O)C(=O)N[C@@H](Cc2ccc(O)cc2)C(=O)O[C@@H]1C,fold change (FC),[1],47
CCCCCCCCCC(=O)N[C@@H](Cc1c[nH]c2ccccc12)C(=O)N[C@H](CC(N)=O)C(=O)N[C@@H](CC(=O)O)C(=O)N[C@@H]1C(=O)NCC(=O)N[C@@H](CCCN)C(=O)N[C@@H](CC(=O)O)C(=O)N[C@H](C)C(=O)N[C@@H](CC(=O)O)C(=O)NCC(=O)N[C@H](CC(N)=O)C(=O)N[C@@H]([C@H](C)CC(=O)O)C(=O)N[C@@H]([C@@H](C)CC)C(=O)O[C@@H]1C,fold change (FC),[3],8
CCCCCCCCCC(=O)N[C@@H](Cc1c[nH]c2ccccc12)C(=O)N[C@H](CC(N)=O)C(=O)N[C@@H](CC(=O)O)C(=O)N[C@@H]1C(=O)NCC(=O)N[C@@H](CCCNC(=N)CCCSCCC(=O)c2ccc3cc(N(C)C)ccc3c2)C(=O)N[C@@H](CC(=O)O)C(=O)N[C@H](C)C(=O)N[C@@H](CC(=O)O)C(=O)NCC(=O)N[C@H](CO)C(=O)N[C@@H]([C@@H](C)CC(=O)O)C(=O)N[C@@H](CC(=O)c2ccccc2N)C(=O)O[C@@H]1C,MIC,[4],10 µg/mL
CCCCCCCCCC(=O)N[C@@H](Cc1c[nH]c2ccccc12)C(=O)N[C@H](CC(N)=O)C(=O)N[C@@H](CC(=O)O)C(=O)N[C@@H]1C(=O)NCC(=O)N[C@@H](CCCNc2ccc([N+](=O)[O-])c3nonc23)C(=O)N[C@@H](CC(=O)O)C(=O)N[C@H](C)C(=O)N[C@@H](CC(=O)O)C(=O)NCC(=O)N[C@H](CO)C(=O)N[C@@H]([C@@H](C)CC(=O)O)C(=O)N[C@@H](CC(=O)c2ccccc2N)C(=O)O[C@@H]1C,MIC,[4],3 µg/mL
CCCCCCCCCC(=O)N[C@@H](Cc1c[nH]c2ccccc12)C(=O)N[C@@H](CC(N)=O)C(=O)N[C@@H](CC(=O)O)C(=O)N[C@@H]1C(=O)NCC(=O)N[C@@H](CCCN)C(=O)N[C@@H](CC(=O)O)C(=O)N[C@H](C)C(=O)N[C@@H](CC(=O)O)C(=O)NCC(=O)N[C@H](CC(=O)O)C(=O)N[C@@H](CCC(=O)O)C(=O)N[C@@H](CC(=O)c2ccccc2N)C(=O)O[C@@H]1C,fold change (FC),[1],>100
CCCCCCCCCC(=O)N[C@@H](Cc1c[nH]c2ccccc12)C(=O)N[C@@H](CC(N)=O)C(=O)N[C@@H](CC(=O)O)C(=O)N[C@@H]1C(=O)NCC(=O)N[C@@H](CCCCN)C(=O)N[C@@H](CC(=O)O)C(=O)N[C@H](C)C(=O)N[C@@H](CC(=O)O)C(=O)NCC(=O)N[C@H](CO)C(=O)N[C@@H](CCC(=O)O)C(=O)N[C@@H](Cc2c[nH]c3ccccc23)C(=O)O[C@@H]1C,fold change (FC),[1],33
C[C@H]1NC(=O)[C@H](CC(=O)O)NC(=O)[C@H](CCCN)NC(=O)CNC(=O)[C@@H](NC(=O)[C@H](CC(=O)O)NC(=O)[C@@H](CC(N)=O)NC(=O)[C@H](Cc2c[nH]c3ccccc23)NC(=O)CCCc2cc3cccc4c5cccc6cccc(c(c2)c34)c65)[C@@H](C)OC(=O)[C@H](CC(=O)c2ccccc2N)NC(=O)[C@H]([C@@H](C)CC(=O)O)NC(=O)[C@@H](CO)NC(=O)CNC(=O)[C@H](CC(=O)O)NC1=O,MIC,[5],3 µg/mL
"CCCCCCCCCC(=O)N[C@@H](Cc1c[nH]c2ccccc12)C(=O)NC(CC(N)=O)C(=O)N[C@@H](CC(=O)O)C(=O)N[C@@H]1C(=O)NCC(=O)N[C@@H](CCCN)C(=O)N[C@@H](CC(=O)O)C(=O)N[C@H](C)C(=O)N[C@@H](CC(=O)O)C(=O)NCC(=O)N[C@H](CO)C(=O)N[C@@H]([C@H](C)CC(=O)O)C(=O)N[C@@H](CC(=O)c2ccccc2N)C(=O)O[C@@H]1C (single isomer, unassigned)",fold change (FC),[6],10
same,fold change (FC),[7],10
same,fold change (FC),[8],10
CCCCCCCCCC(=O)N[C@@H](Cc1c[nH]c2ccccc12)C(=O)N[C@H](CC(N)=O)C(=O)N[C@@H](CC(=O)O)C(=O)N[C@@H]1C(=O)NCC(=O)N[C@@H](CCCN)C(=O)N[C@@H](CC(=O)O)C(=O)N[C@H](C)C(=O)N[C@@H](CC(=O)O)C(=O)NCC(=O)N[C@H](CO)C(=O)N[C@@H]([C@H](C)CC(=O)O)C(=O)N[C@@H](CC(=O)c2ccccc2N)C(=O)O[C@@H]1C [DAPTOMYCIN],Activity,[9],100%
same,Activity,[10],< 10%
same,fraction unbound,[11],0.1
CCCCCCCCCC(=O)N[C@@H](Cc1c[nH]c2ccccc12)C(=O)N[C@@H](CC(N)=O)C(=O)N[C@@H](CC(=O)O)C(=O)N[C@@H]1C(=O)NCC(=O)N[C@@H](CCCN)C(=O)N[C@@H](CC(=O)O)C(=O)N[C@H](C)C(=O)N[C@@H](CC(=O)O)C(=O)NCC(=O)N[C@H](CO)C(=O)N[C@@H]([C@H](C)CC(=O)O)C(=O)N[C@@H](CC(=O)c2ccccc2N)C(=O)O[C@@H]1C [DAPTOMYCIN],MIC,[12],2 µg/mL
same,MIC,[13],0.5 µg/mL
